Measurements from US6436420B1, “High performance silver (I,III) oxide antimicrobial textile articles” (Marantech Holding, LLC, priority 2000, dated 2002).

Legend:
[1] = test system: very virulent strain of Staph; assay type: cell-based; settings: calculated from inhibition zone being inversely proportional to MIC
Text: (§1) An independent medical researcher in Israel obtained a very virulent strain of Staph from a patient at the Shaarei Tzedek Hospital in Jerusalem. […] This Staph strain was utilized as the Staph source, and the otherwise exact test protocol described above was repeated. […] Only one test swatch was used for the Staph evaluation.

[2] = test system: all Gram Negative bacteria listed in Table 1; settings: same reasoning applied to PA marker
Text: as §1

[3] = test system: all Gram positive bacteria listed in Table 1; settings: extrapolated from virulent Staph result
Text: as §1

Escherichia coll 10231 = settings: Escherichia coll 10231, Gram Negative; cited from earlier work
Escherichia coll 25254 = settings: Escherichia coll 25254, Gram Negative; cited from earlier work
[4] = test system: Enterobacter cloacae 13047; settings: Enterobacter cloacae 13047, Gram Negative; cited from earlier work
[5] = test system: Pseudomonas aeruginosa 9027; settings: Pseudomonas aeruginosa 9027, Gram Negative; cited from earlier work
Bacillus subtilis 6633 = settings: Bacillus subtilis 6633, Gram Positive; cited from earlier work
Micrococcus lutena 9341 = settings: Micrococcus lutena 9341, Gram Positive; cited from earlier work
[6] = test system: Staphylococcus aureus 0927; settings: Staphylococcus aureus 0927, Gram Positive; cited from earlier work
[7] = test system: Staphylococcus aureus 27543; settings: Staphylococcus aureus 27543, Gram Positive; cited from earlier work
[8] = test system: Staphylococcus epidermidis 12228; settings: Staphylococcus epidermidis 12228, Gram Positive; cited from earlier work
[9] = test system: Streptococcus agalactiae 27956; settings: Streptococcus agalactiae 27956, Gram Positive; cited from earlier work
[10] = test system: Streptococcus faecium 10541; settings: Streptococcus faecium 10541, Gram Positive; cited from earlier work
[11] = test system: Streptococcus-pyogenes 7958; settings: Streptococcus-pyogenes 7958, Gram Positive; cited from earlier work
Candida albicans 16404 = settings: Candida albicans 16404, Yeast and Mold; cited from earlier work
[12] = test system: Saccharomyces cerevisiae 2601; settings: Saccharomyces cerevisiae 2601, Yeast and Mold; cited from earlier work

## [Ag+].[Ag+].[Ag+].[Ag+].[O-2].[O-2].[O-2].[O-2] [Ag4O4, tetrasilver tetroxide]
[1]
  MIC for the virulent Staph strain: 40.5-61.0 PPM
[2]
  inhibition of all Gram Negative bacteria listed in Table 1: inhibition
[3]
  inhibition of all listed Gram positive bacteria: capable of inhibiting
Escherichia coll 10231
  MIC (Minimal Inhibitory Concentration): 2.50 PPM
Escherichia coll 25254
  MIC (Minimal Inhibitory Concentration): 2.50 PPM
[4]
  MIC (Minimal Inhibitory Concentration): 2.50 PPM
[5]
  MIC (Minimal Inhibitory Concentration): 1.25-2.50 PPM
Bacillus subtilis 6633
  MIC (Minimal Inhibitory Concentration): 5.00 PPM
Micrococcus lutena 9341
  MIC (Minimal Inhibitory Concentration): 1.25-2.50 PPM
[6]
  MIC (Minimal Inhibitory Concentration): 2.50-5.00 PPM
[7]
  MIC (Minimal Inhibitory Concentration): 5.00 PPM
[8]
  MIC (Minimal Inhibitory Concentration): 0.625 PPM
[9]
  MIC (Minimal Inhibitory Concentration): 1.25-5.00 PPM
[10]
  MIC (Minimal Inhibitory Concentration): 5.00 PPM
[11]
  MIC (Minimal Inhibitory Concentration): 2.50 PPM
Candida albicans 16404
  MIC (Minimal Inhibitory Concentration): 2.50-5.0 PPM
[12]
  MIC (Minimal Inhibitory Concentration): 1.25 PPM
